# Literature values in patent US6413988B1, “Prucalopride oral solution” (Janssen Pharmaceutica N.V., priority 1999, dated 2002).
# Legend:
# [1] = tested on: colon
# [2] = tested on: 5-HT3 receptors
# [3] = biological target: 5-HT2A receptors (Homo sapiens, UniProt P28223)
# [4] = biological target: 5-HT4 receptors (Homo sapiens, UniProt Q13639)
# Sequence of 5-HT4 receptors (Q13639 whole entry): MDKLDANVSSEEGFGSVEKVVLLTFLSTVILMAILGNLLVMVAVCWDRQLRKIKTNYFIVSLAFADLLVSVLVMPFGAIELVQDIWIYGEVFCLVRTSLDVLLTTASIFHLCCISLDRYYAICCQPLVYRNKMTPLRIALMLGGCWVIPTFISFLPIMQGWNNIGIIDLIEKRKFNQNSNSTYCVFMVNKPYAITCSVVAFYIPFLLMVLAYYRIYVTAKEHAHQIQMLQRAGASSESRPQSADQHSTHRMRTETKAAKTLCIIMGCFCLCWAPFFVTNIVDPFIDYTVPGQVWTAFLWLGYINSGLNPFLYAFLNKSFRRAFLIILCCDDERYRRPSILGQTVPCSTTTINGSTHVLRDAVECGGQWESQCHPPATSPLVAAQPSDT
# Sequence of 5-HT2A receptors (P28223 whole entry): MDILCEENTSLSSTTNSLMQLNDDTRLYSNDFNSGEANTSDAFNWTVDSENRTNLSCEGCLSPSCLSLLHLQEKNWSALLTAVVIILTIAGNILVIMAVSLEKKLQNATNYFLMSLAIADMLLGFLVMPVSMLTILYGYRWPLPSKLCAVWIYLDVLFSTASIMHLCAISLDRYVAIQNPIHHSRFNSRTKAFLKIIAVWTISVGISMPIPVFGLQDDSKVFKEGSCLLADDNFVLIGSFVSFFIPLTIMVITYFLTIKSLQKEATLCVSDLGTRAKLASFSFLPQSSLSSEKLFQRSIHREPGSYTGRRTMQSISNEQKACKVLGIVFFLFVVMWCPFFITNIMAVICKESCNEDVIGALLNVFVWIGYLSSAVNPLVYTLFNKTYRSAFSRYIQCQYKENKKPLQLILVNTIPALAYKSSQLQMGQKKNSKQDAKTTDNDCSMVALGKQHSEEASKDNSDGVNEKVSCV
smiles,measurement,setting,value
"COCCCN1CCC(NC(=O)c2cc(Cl)c(N)c3c2OCC3)CC1 [Prucalopride, 4-amino-5-chloro-2,3-dihydro-N-[1-(3-methoxypropyl)-4-piperidinyl]-7-benzofuran-carboxamide]",colonic motility and defecation,[1]; in animals,stimulates colonic motility and defecation
same,giant contractions in the colon,[1]; propagated over the length of the colon as a peristaltic wave,induces giant contractions in the colon
same,affinity for 5-HT3 receptors,[2],no affinity
same,affinity for 5-HT2A receptors,[3],no affinity
same,agonist of 5-HT4 receptors,[4],potent and selective agonist
